Patent publication US9150608B2, “Neuro-protective compounds and their use” (Biotechnology Research Corp. Ltd., priority 2010, dated 2015)

Assays:
[1] = system: rat cortical neurons cultured in the absence of B27; assay: Cortical neuron survival assay with B27 withdrawal (MTT); type: cell-based; details: for cell survival of cortical neurons in the absence of B27 (MTT): 30 μM, pre-treated 24 hours (FIG. 15); for concentration showing neuroprotective effect in the absence of B27 (MTT): primary cortical neurons 7DIV, dose-dependent study 1-30 μM
Method: FIG. 2. Adelostemma gracillimum refined fraction promotes rat cortical neuron survival against B27 withdrawal. Cortical neurons isolated from embryonic day 18 rats were cultured in Neurobasal medium supplemented with 2 % B27. […] A MTT assay was performed 24 hours later. Cell survival is presented as a percentage compared to a DMSO control in the presence of B27 (“CTL with B27”). Assays were conducted in triplicate and repeated at least twice. *=P<0.05.
Primary cortical neurons were cultured in Neurobasal medium and supplemented with B27, a proprietary formula of Life Technologies. The combination of Neurobasal medium and B27 provides a stable growth environment for primary neurons to maturity in vitro. Neurons undergo apoptosis or cell death in the absence of B27. To study the neuroprotective effect of Adelostemma gracillimum refined fraction, neurons of 7DIV were treated with AG-0 and cell survival was measured as mitochondrial activity by the MTT assay.
The cells were then washed with Hanks' solution twice and replaced with test samples that were serial diluted in Neurobasal medium. A tetrazole, 3-(4,5-Dimethylthiazol-2-yl)-2,5-diphenyltetrazolium bromide (MTT, 5 mg/ml) was added to the medium at a ratio of 1:10 after a 2-day incubation. MTT is reduced by living cells into purple formazan and further solubilized in 20% SDS solution; therefore, the colored solution was measured by spectrophotometer and cell viability was quantified.

[2] = system: cortical neurons in the absence of B27; assay: Immunocytochemical analysis of neurons after B27 withdrawal; type: cell-based, rat; details: 30 μM, pre-treated 24 hours
Method: FIG. 10. Immunofluorescence staining of cortical neurons pretreated with Adelostemma gracillimum refined fraction or fraction AG-3 in the absence of B27. […] Cortical neuronal cultures of 7DIV were pre-treated with AG-0 (30 μg/mL), AG-3 (30 μg/mL), or BDNF (50 ng/mL) for 24 hours, then the medium was changed to one lacking B27. Cultures were fixed with 4% paraformaldehyde, immunostained with beta-tubulin type III antibody, and visualized with FITC-conjugated anti-mouse antibody. Cell bodies were highlighted by DAPI staining. DMSO was used as a solvent control. Images are shown at 40× magnification.
FIG. 21. Immunofluorescence staining of GAG-C27-treated cortical neurons in the absence of B27. Cortical neuronal cultures of 7DIV were pre-treated with AG-0 (30 μg/mL), GAG-C27 (30 μM), or BDNF (50 ng/mL) for 24 hours, after which the medium was changed to one lacking B27. Cultures were fixed with 4% paraformaldehyde, immunostained with beta-tubulin type III antibody, and visualized with FITC-conjugated anti-mouse antibody. Cell bodies were highlighted by DAPI staining. DMSO was used as a solvent control. […]
Cortical neurons were plated on 35-mm dishes (NUNC) at a density of 1×10^6 cells per plate using Neurobasal medium (Invitrogen) supplemented with 2% B27 (Invitrogen). […] Cell morphology was then analyzed using a fluorescence microscope with a 40× objective (DMRA; Leica). […]

[3] = system: phosphorylated ERK, CREB, Akt, P38, MEK in cortical neurons; assay: Western blot detection of signaling proteins in cortical neurons; type: cell-based, rat; details: cortical neurons 7DIV
[4] = system: cyclic AMP response (CRE) element; assay: CRE-dependent transcription assay (luciferase); type: cell-based, rat; details: hippocampal neurons 12DIV, 50 μM, 6 hours
Method: FIG. 41. GAG compounds enhance CRE-dependent transcription activity. GAG-C14 (a), GAG-C53 (b), GAG-C63 (c), GAG-C69 (d), GAG-C84 (e), GAG-C111 (f), GAG-C122 (g), GAG-C123 (h), and GAG-C129 (i) induce CRE-dependent transcriptional activity in cultured hippocampal neurons. On the day of cell seeding, hippocampal neurons were transfected with a firefly luciferase reporter plasmid containing cyclic AMP response (CRE)-element. The cells at 12 DIV were then treated with 50 μM of AG compounds for 6 hours. Data are mean±SEM (n=3-4), *=P<0.05, **=P<0.01, and ***=P<0.005 versus vehicle-treated cells (0 μM), student's t test.
Cultured hippocampal neurons were transfected with a firefly luciferase reporter plasmid containing a cyclic AMP response (CRE) element. At 12DIV, the cells were treated with 50 μM of compound for 6 hours, then CRE-dependent transcription activity was assayed by measuring luciferase levels.
Freshly isolated embryonic cortical neurons were transfected with a luciferase reporter gene (Cre-Luc) linked to CREB activation following the ACM lipofectamine method using Lipofectamine 2000, a cationic liposome based reagent (Invitrogen). […] Transfection was performed using 1 μL Lipofectamine 2000 and 0.4 μg DNA per well. Neurons were then treated with test samples for time periods of 6 hours. After treatment, the cells were washed with ice-cold DPBS and 100 μL of 1× luciferase lysis buffer (Promega) was added. The plates were placed in −20° C. to freeze the cells, after which they were thawed to facilitate lysis. The lysates were transferred onto white bottom plates and assayed for renilla luciferase using the luciferase assay kit (Promega). Increased CREB activation in the neurons leads to an enhanced luciferase production and this was quantified using a Promega GloMax™ 96 microplate luminometer. […] BDNF and rolipram were used as positive controls.

hippocampal neurons = assay: Quantification of spine (dendritic spine morphology); type: cell-based, rat; details: hippocampal neurons 14DIV, 10 μM, 24 hr, vs DMSO
Method: FIG. 38. GAG-C14 modulates spine morphogenesis. Hippocampal neurons were transfected with enhanced green fluorescent protein (EGFP) construct at 7DIV by calcium phosphate precipitation. The GFP-expressing neurons at 14DIV were then treated with 10 μM GAG-C14 or DMSO vehicle control for 24 hr. The dendritic spine morphology of hippocampal neurons was examined by confocal microscopy.
Cultured hippocampal neurons were seeded on 18 mm coverslips coated with poly-D-lysine in 12-well-plates (Falcon). The neurons were then grown in Neurobasal medium (Invitrogen) supplemented with 2% B27 (Invitrogen) and 0.5 mM glutamine. To visualize the morphology of dendritic spines, the neurons were transfected with GFP DNA construct between 7-9 DIV by using calcium phosphate precipitation. To examine the development of dendritic spines, the neurons were treated with the test compound on 14 DIV. The neurons were then fixed with 4% paraformaldehyde and morphology was examined using confocal microscopy. To quantify spine density in cultured hippocampal neurons, a stack of images (z step, 0.5 μm) was collected using a 60× objective. Images were merged and analyzed using MetaMorph software (Universal Imaging Corp). Dendritic spines, defined as protrusions at least 0.5 μm from the dendritic surface, were scored and expressed as per μm length of dendrite. Three dendrites from each neuron was randomly selected and quantified in a double-blinded manner. For each experimental condition, twenty to thirty neurons were analyzed from 3 independent experiments. Data was presented as mean±SEM.

CREB promoter = CREB promoter assay (luciferase) in cortical neurons; type: cell-based, rat; details: cortical neurons 7DIV, 6 hours incubation
Method: FIG. 26. GAG-C77 increases CREB-promoter activity in primary cortical neurons. Primary cortical neuronal cultures (7DIV) transfected with a luciferase-CREB promoter construct were treated with GAG-C69 or GAG-C77 (concentration depicted in [μM]). Cell lysates were collected after 6 hours incubation and luciferase activity was measured. BDNF [ng/mL] and rolipram [μM] were used as positive controls. Assays were conducted in triplicate. *=P<0.05; **=P<0.005.
Freshly isolated embryonic cortical neurons were transfected with a luciferase reporter gene (Cre-Luc) linked to CREB activation following the ACM lipofectamine method using Lipofectamine 2000, a cationic liposome based reagent (Invitrogen). […] Transfection was performed using 1 μL Lipofectamine 2000 and 0.4 μg DNA per well. Neurons were then treated with test samples for time periods of 6 hours. After treatment, the cells were washed with ice-cold DPBS and 100 μL of 1× luciferase lysis buffer (Promega) was added. The plates were placed in −20° C. to freeze the cells, after which they were thawed to facilitate lysis. The lysates were transferred onto white bottom plates and assayed for renilla luciferase using the luciferase assay kit (Promega). Increased CREB activation in the neurons leads to an enhanced luciferase production and this was quantified using a Promega GloMax™ 96 microplate luminometer. […]

Row | Compound | cell survival of cortical neurons in the absence of B27 (MTT) [1] | concentration showing neuroprotective effect in the absence of B27 (MTT) [1] | protection from cell death after B27 withdrawal (immunofluorescence staining) [2] | AKT protein phosphorylation ([3]; 10 μM) | ERK phosphorylation time course ([3]; 10 μM) | phosphorylated P38 ([3]; 10 μM, after 30 min of incubation) | CRE-dependent transcription activity (luciferase) [4] | frequency / percentage of filopodia (hippocampal neurons) | percentage of large spines (head>1 μm) (hippocampal neurons) | spine density (hippocampal neurons) | ERK phosphorylation time course ([3]; 30 μM) | CREB phosphorylation ([3]; 30 μM, 15 min of incubation) | luciferase activity driven by the CREB promoter (CREB promoter)
1 | 3-O-β-D-Cymaropyranose-(1→4)-β-D-Digitoxopyranose-12-cis-cinnamyl-20-acetyl-8,14-seco-sacrostin [GAG-C27] | promoted cell survival | 30 µM | protected cortical neurons from cell death | no effect | induced ERK phosphorylation in cortical neurons after 15 min, which was sustained for 60 min | reduction | – | – | – | – | – | – | –
2 | CCCCCCCCCCCCCCCC(=O)OCC(O)CO (centres unmarked) [GAG-C14, 2,3-dihydroxypropyl palmitate] | – | – | – | no observable effect | induced ERK phosphorylation in cortical neurons after 15 min and the effect remained for 90 min | – | enhances CRE-dependent transcription | reduction in the frequency of filopodia | significantly increased | increase in spine density | – | – | –
3 | COc1cc(C2Oc3c(OC)cc(C=O)cc3C2C)ccc1O (centres unmarked) [GAG-C77, 4-hydroxyl-3,3′-dimethyoxyl-4″,7-epoxy-8,5′-oxyneoligna-7′-al] | promoted cell survival | 10 to 30 µM | – | – | – | – | – | – | – | – | significantly induced ERK phosphorylation in cortical neurons from 15 min and persistently to 180 min | induced CREB phosphorylation | significantly induce luciferase activity
